Assay results as given in patent US5827896A, “Pinitol and derivatives thereof for the treatment of metabolic disorders” (priority 1996, dated 1998).
Where “and” joins values, the source holds several entries; their conditions need not be identical. Equal entries are not always repeated.

Key:
[1] = test system: plasma insulin; assay: plasma insulin during oral glucose tolerance test (RIA) in non-insulin-dependent Type II diabetics (Example 3); format: in vivo, human
Protocol: (§1) Five non-insulin-dependent diabetic subjects were studied on two occasions one week apart. For three days the subjects received pinitol 4.15 mg/kg/day orally in a drink once daily for 3 days. The preparation also contained 0.85 mg/kg/day D-chiro-inositol in other forms. The total inositol content by weight (including pinitol) was 22.5%. On the fourth day they took no morning dose of oral hypoglycemic agents and reported to the Clinical Research Center. Baseline blood samples were taken at -90 and -60 minutes, and at -60 minutes a dose of pinitol identical to that taken during the previous 3 days was given orally. The material contained less than 5 calories. At zero time 75 g glucose was given to begin a glucose tolerance test and blood samples were taken half-hourly for 3 hours. In random order the subjects received either myo-inositol (5 mg/kg/day) or soy pinitol (total inositol content 5 mg/kg/day). […] Plasma inositol levels were measured by gas chromatography/mass spectrometry and insulin levels were measured by RIA.

[2] = test system: plasma insulin; details: stated as basis for use as control; cited from earlier work
[3] = test system: plasma glucose; details: stated as basis for use as control; cited from earlier work
[4] = test system: plasma glucose; assay: plasma glucose during oral glucose tolerance test in non-insulin-dependent Type II diabetics (Example 3); format: in vivo, human
From the text: The material contained less than 5 calories.

[5] = clinical; details: in vivo
Protocol: as §1

[6] = test system: plasma free fatty acids; assay: fasting plasma free fatty acids in NIDDM patients, placebo-controlled crossover (Example 5); format: in vivo, human; details: 5 days
Protocol: (§2) 10 non-insulin-dependent diabetes patients maintained a pinitol and D-chiro-inositol-deficient diet (no legumes, or citrus fruits) throughout the study. […] The following table summarizes the characteristics of the patients.
(§3) Each subject received both placebo and soy-derived pinitol in separate tests. After an initial 5-day washout period the subjects received 5 days of treatment with either pinitol 5 mg/kg BID (total dose 10 mg/kg/day) or placebo without inositols. The material was given orally in 60 ml. calorie-free KOOL-AID drink.
(§4) Twelve hours after the last dose, two fasting plasma samples were drawn from each subject 15 minutes apart. Plasma free fatty acid levels were measured. A dose of pinitol was then given and a 3-hour glucose tolerance test was performed.
(§5) After a second 5-day washout period and another 5 days of pinitol or placebo feeding the testing was repeated. The order of treatment (pinitol or lacebo) was randomized and study investigatyors and those conducting the analyses were blinded to the order of treatment given.

[7] = fasting plasma pinitol and chiro-inositol levels in NIDDM patients (Example 5); format: in vivo, human
Protocol: as §2, §3, §4, §5

[8] = acid hydrolysis of pinitol to D-chiro-inositol in 6N HCl; format: physicochemical; details: 24 hr at 110° in 6N HCl
Protocol: The highly standardized components of Purina Rodent Chow 5001 were analyzed by gas chromatography-mass spectrometry after hydrolysis in 6N HCI at 110° for 24 hr. to convert the pinitol to D-chiro-inositol and the results are presented in Table I below:
In contrast to other ether linkages it is not necessary to use concentrated hydrogen iodide to convert pinitol to D-chiro-inositol as detailed in U.S. Pat. No. 5,091,596.

[9] = before glucose, during pinitol treatment
[10] = compared to the pinitol-deficient diet

plasma D-chiro-inositol reached ([5]; human, 240 min) [µM] | Cmax at 3 h ([5]; human, po, 4.15 mg/kg/day) [nM] | time of peak plasma pinitol after oral administration ([5]; po) | plasma chiro-inositol on pinitol feeding [7, 10] | plasma pinitol on pinitol feeding [7, 10] | concentration at 12 h ([7]; human, plasma, po, pinitol 5 mg/kg BID orally, 5 days, twelve hours after last dose, Mean ± SD, placebo 0.014 ± 0.012, P <0.0001) [nM] | SMILES | Insulin Area, myo-Inositol ([1]; 75 g glucose tolerance test, 3 hours, myo-inositol 5 mg/kg/day (control), one value per subject (1-5)) | effect on plasma insulin [2] | effect on plasma glucose [3] | baseline glucose levels [4, 9] | reduction in plasma glucose area (mg/dl×minutes) during the glucose tolerance test ([4]; pinitol vs myo-inositol, five subjects, p=0.11) [%] | Insulin Area, Pinitol ([1]; 75 g glucose tolerance test, 3 hours, soy pinitol (total inositol 5 mg/kg/day orally), one value per subject (1-5)) | baseline insulin levels [1, 9] | reduction of insulin area during the glucose tolerance test ([1]; pinitol vs myo-inositol, five subjects, p=0.046) [%] | Insulin Area, Percent Change (Reduction) ([1]; pinitol vs myo-inositol, one value per subject (1-5)) | Fasting plasma free fatty acids ([6]; pinitol 5 mg/kg BID (10 mg/kg/day) orally, twelve hours after last dose, Mean ± SD, placebo 648 ± 244, P 0.05) [µM] | reduction in mean fasting plasma free fatty acids ([6]; pinitol 5 mg/kg BID, vs placebo, p=0.05 by paired t-test) [%] | conversion to D-chiro-inositol on acid hydrolysis [8]
 |  |  |  |  |  | O[C@H]1[C@H](O)[C@@H](O)[C@H](O)[C@@H](O)[C@H]1O [myo-Inositol, myo-inositol, reference compound] | 18066 μU/ml × minutes and 4599 μU/ml × minutes and 2253 μU/ml × minutes and 2256 μU/ml × minutes and 1191 μU/ml × minutes | no definite effect | no definite effect |  |  |  |  |  |  |  |  | 
1.7 | 5400 | three | increased substantially | increased substantially | 488 ± 290 | CO[C@H]1[C@H](O)[C@@H](O)[C@@H](O)[C@H](O)[C@@H]1O [Pinitol, 3-O-methyl-D-chiro-inositol] |  |  |  | unchanged | 18.8±9.1 | 8844 μU/ml × minutes and 4032 μU/ml × minutes and 1518 μU/ml × minutes and 1566 μU/ml × minutes and 1197 μU/ml × minutes | unchanged | 25.2±8.9 | 51.1% and 12.3% and 32.6% and 30.6% and 0.5% | 569 ± 276 | 12.2 | quantitatively converted to D-chiro-inositol
